Here are results for 15 compounds from patent US6825185B2, “Substituted aryl compounds as novel cyclooxygenase-2 selective inhibitors, compositions and methods of use” (NitroMed, Inc., priority 2000, dated 2004).

One assay concerns the target COX-1 (Homo sapiens, UniProt P23219). The experiment in a line: COX-1 enzyme activity in human whole blood (A23187 stimulated, thromboxane B2 EIA). The class given is cell-based. On the set-up: Human blood (≈50 mL) from male or female donors who had not received any aspirin or NSAIDs for 14 days; endogenous in cells; host or cells: human whole blood from donors. Particulars: for COX-1 Inhibition (% at 100 μM): test compound at 100 μM. As for the experimental part:
(§1) The assay for COX-1 and COX-2 enzyme activity, in the human whole blood was performed as described in Brideau et al., Inflamm Res., 45: 68-74 (1996)). Human blood (≈50 mL) from male or female donors who had not received any aspirin or NSAIDs for 14 days was collected at two local area blood donor centers and placed in polypropylene syringes containing sodium heparin (20 units per mL blood, final concentration). The blood was transported to the laboratory on ice packs and used within 1.5 hours of collection. Upon receipt in the laboratory, the blood was allowed to come to room temperature for 15 minutes prior to distribution in 1 mL aliquots per well of 24 well tissue culture plates. The plates were then placed on a gently rotating platform shaker in a 5% CO2 incubator at 37° C. for 15 minutes. Test compounds were dissolved in DMSO, at 1000 fold the final desired concentration, and further diluted, as indicated, in DMSO. One μL of each dilution of the test compound was added per well, in duplicate wells; wells not receiving test compound (e.g., basal, background or control wells) received 1 μL DMSO.
(§2) To induce COX-2, lipopolysaccharide (LPS) from E. coli (LPS, serotype 026:B6 or serotype 0127:B8, Sigma Chemical Co., St. Louis, Mo., Catalogue No. L3755 or L3129, respectively) was added at 10 μg/mL (2 μL of 5 mg/mL LPS in DMSO) to appropriate wells 15 minutes after the addition of the test compound. (Basal or background wells not incubated with LPS received 2 μL of DMSO.) For the stimulation of COX-1, the calcium ionophore, A23187 (free acid from Sigma Chemical Co., St. Louis, Mo., Catalogue No. C7522) was added at 25 μM (1 μL of 25 mM stock in DMSO) to separate wells 4.5 hours after the addition of the test compound. (Again, basal, background or control wells not stimulated with A23187 received 1 μL of DMSO.) At 5 hours after the addition of the test compound, all incubations were terminated by placement on ice and the addition of 2 mM EGTA (100 μL of 20 mM EGTA, tetrasodium, in PBS (phosphate buffered saline) without Ca^++ and Mg^++, pH 7.2)). The resulting solutions, were transferred by polyethylene transfer pipettes to 15 mL polypropylene centrifuge tubes and centrifuged at 1200 g for 10 minutes at 4° C. One hundred μL of plasma was removed from each blood sample and added to 1 mL of methanol in new 15 mL polypropylene centrifuge tubes, vortexed, and stored overnight at −20° C. The next day, the samples were centrifuged at 2000 g for 10 minutes at 4° C. and the supernatants transferred to glass tubes and evaporated to dryness. The samples were assayed for thromboxane B2 using EIA kits supplied by Cayman Chemical Co. (Ann Arbor, Mich., Catalogue No. 519031) in duplicate wells after reconstitution with EIA Buffer and appropriate dilution (2000 fold for COX-1 and 500 fold for Cox-2 samples).

Another assay addresses T1, COX-2 (Homo sapiens, UniProt P35354).
T1 sequence (P35354 18-604): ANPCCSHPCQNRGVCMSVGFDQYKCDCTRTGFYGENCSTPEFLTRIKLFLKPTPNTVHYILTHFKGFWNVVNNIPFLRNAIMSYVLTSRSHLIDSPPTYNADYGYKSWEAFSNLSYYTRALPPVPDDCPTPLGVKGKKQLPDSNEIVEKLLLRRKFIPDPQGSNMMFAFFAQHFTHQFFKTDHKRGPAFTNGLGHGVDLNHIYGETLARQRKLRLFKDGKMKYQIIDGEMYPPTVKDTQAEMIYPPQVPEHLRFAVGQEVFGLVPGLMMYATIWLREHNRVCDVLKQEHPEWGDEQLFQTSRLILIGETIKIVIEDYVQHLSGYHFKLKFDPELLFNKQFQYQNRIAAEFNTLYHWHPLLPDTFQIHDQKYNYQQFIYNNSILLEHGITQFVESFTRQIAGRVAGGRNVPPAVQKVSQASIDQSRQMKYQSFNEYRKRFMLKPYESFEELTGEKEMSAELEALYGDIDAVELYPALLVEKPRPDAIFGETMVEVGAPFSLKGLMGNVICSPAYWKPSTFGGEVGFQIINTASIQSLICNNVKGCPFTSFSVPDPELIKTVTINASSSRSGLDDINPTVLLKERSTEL
Put plainly: COX-2 enzyme activity in human whole blood (LPS induced, thromboxane B2 EIA). The class given is cell-based. Details: Human blood (≈50 mL) from male or female donors who had not received any aspirin or NSAIDs for 14 days; endogenous in cells; host or cells: human whole blood from donors, LPS-induced. Particulars: test compound at 10 μM. The protocol:
as §1, with “Human” for “The assay for COX-1 and COX-2 enzyme activity, in the human whole blood was performed as described in Brideau et al., Inflamm Res., 45: 68-74 (1996)). Human”
as §2, with “(Basal or background wells not incubated with LPS received 2 μL of DMSO.) For the stimulation of COX-1, the calcium ionophore, A23187 (free acid from Sigma Chemical Co., St. Louis, Mo., Catalogue No. C7522) was added at 25 μM (1 μL of 25 mM stock in DMSO) to separate wells 4.5 hours after the addition of the test compound.” left out, “dryness.” for “dryness. The samples were assayed for thromboxane B2 using EIA kits supplied by Cayman Chemical Co. (Ann Arbor, Mich., Catalogue No. 519031) in duplicate wells after reconstitution with EIA Buffer and appropriate dilution (2000 fold for COX-1 and 500 fold for Cox-2 samples).”

COX-1, sequence (P23219 24-599): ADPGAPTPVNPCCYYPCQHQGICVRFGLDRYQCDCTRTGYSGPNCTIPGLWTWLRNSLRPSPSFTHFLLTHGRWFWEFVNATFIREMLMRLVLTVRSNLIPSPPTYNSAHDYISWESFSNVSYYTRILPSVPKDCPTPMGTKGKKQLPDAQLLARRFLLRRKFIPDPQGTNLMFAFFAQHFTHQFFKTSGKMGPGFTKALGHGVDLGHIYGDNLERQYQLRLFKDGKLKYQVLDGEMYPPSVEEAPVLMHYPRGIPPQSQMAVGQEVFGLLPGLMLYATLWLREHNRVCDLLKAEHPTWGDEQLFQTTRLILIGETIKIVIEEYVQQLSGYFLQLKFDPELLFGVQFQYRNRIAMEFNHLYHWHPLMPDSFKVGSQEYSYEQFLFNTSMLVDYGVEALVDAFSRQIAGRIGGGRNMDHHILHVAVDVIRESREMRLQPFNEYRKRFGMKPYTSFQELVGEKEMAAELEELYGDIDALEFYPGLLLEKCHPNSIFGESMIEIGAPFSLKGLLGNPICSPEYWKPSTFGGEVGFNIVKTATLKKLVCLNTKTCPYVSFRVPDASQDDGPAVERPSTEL

As for “1-(7-((3,5-Difluorophenyl)methyl)-2-((nitrooxy)methyl)(2H, 3H-benzo(3,4-e)1, 4-dioxin-6-yl))-4-(methylsulfonyl)benzene and 1-(7-((3,5-difluorophenyl)methyl)-3-((nitrooxy)methyl)(2H, 3H-benzo(e)1,4-dioxin-6-yl))-4-(methylsulfonyl)benzene [Example 19b]”, the “COX-1 Inhibition (% at 100 μM)” value on COX-1 stood at 65%. For the same compound, the “COX-2 Inhibition (% at 10 μM)” value on COX-2 is on record as 35%.
“1-(7-((3,5-Difluorophenyl)methyl)-2-(hydroxymethyl)(2H, 3H-benzo(3,4-e)1,4-dioxin-6-yl))-4-(methylsulfonyl)benzene and 1-(7-((3,5-difluorophenyl)methyl)-3-(hydroxymethyl)(2H, 3H-benzo(e)1,4-dioxin-6-yl))-4-(methylsulfonyl)benzene [Example 19a]”: the “COX-1 Inhibition (% at 100 μM)” value at COX-1 came to 45%. For the same compound, the “COX-2 Inhibition (% at 10 μM)” value on COX-2 was determined as 15%.
For the compound `CS(=O)(=O)c1ccc(-c2cc3c(cc2C(=O)C2CCCCC2)OCO3)cc1` [Example 2c, Cyclohexyl 6-(4-(methylsulfonyl)phenyl)(2H-benzo(d)1,3-dioxolan-5-yl) ketone], on COX-1 (test compound at 30 μM), the “COX-1 Inhibition (% at 30 μM)” value is 70 (at 30 μM) %. For the same compound, at COX-2, the “COX-2 Inhibition (% at 10 μM)” value worked out at 85%.
For the compound `CS(=O)(=O)c1ccc(-c2cc3c(cc2Cc2ccccc2)OCO3)cc1` [Example 3c, 4-(Methylsulfonyl)-1-(6-benzyl(2H-benzo(3,4-d)1,3-dioxolan-5-yl))benzene], the “COX-1 Inhibition (% at 100 μM)” value on COX-1 is given as 65%. The “COX-2 Inhibition (% at 10 μM)” value on COX-2 was 50%.
For `CS(=O)(=O)c1ccc(-c2cc3c(cc2Cc2ccccc2F)OCO3)cc1` [Example 4c, 1-(6-((2-Fluorophenyl)methyl)(2H-benzo(3,4-d)1,3-dioxolan-5-yl))-4-(methylsulfonyl)benzene], the “COX-1 Inhibition (% at 100 μM)” value on COX-1 came out at 70%. Further, at COX-2, the “COX-2 Inhibition (% at 10 μM)” value was found to be 60%.
For `CS(=O)(=O)c1ccc(-c2cc3c(cc2C(=O)c2ccccc2F)OCO3)cc1` [Example 4d, 2-Fluorophenyl 6-(4-(methylsulfonyl)phenyl)(2H-benzo(d)1,3-dioxolan-5-yl) ketone], in that order: 70% and 90%.
Regarding `CS(=O)(=O)c1ccc(-c2cc3c(cc2Cc2cccc(F)c2)OCO3)cc1` [Example 5c, 1-(6-((3-Fluorophenyl)methyl)(2H-benzo(3,4-d)1,3-dioxolan-5-yl))-4-(methylsulfonyl)benzene], the “COX-1 Inhibition (% at 100 μM)” value at COX-1 is given as 55%. Moreover, on COX-2, the “COX-2 Inhibition (% at 10 μM)” value was determined as 90%.
The matching figures for `CS(=O)(=O)c1ccc(-c2cc3c(cc2C(=O)c2cccc(F)c2)OCO3)cc1` [Example 5d, 3-Fluorophenyl 6-(4-(methylsulfonyl)phenyl)(2H-benzo(d)1,3-dioxolan-5-yl) ketone]: 70% and 95%.
With `CCOC(=O)/C(C)=C/c1cc2c(cc1-c1ccc(S(C)(=O)=O)cc1)OCO2` [Example 7d, Ethyl (2E)-2-methyl-3-(6-(4-(methylsulfonyl)phenyl)(2H-benzo(d)1,3-dioxolan-5-yl))prop-2-enoate], the “COX-1 Inhibition (% at 100 μM)” value on COX-1 turned out to be 5%. Further, the “COX-2 Inhibition (% at 10 μM)” value at COX-2 was determined as 35%.
The matching figures for `C/C(=C\c1cc2c(cc1-c1ccc(S(C)(=O)=O)cc1)OCO2)CO` [Example 7e, 1-(6-((1E)-3-Hydroxy-2-methylprop-1-enyl)(2H-benzo(3,4-d)1,3-dioxolan-5-yl))-4-(methylsulfonyl)benzene]: 20% and 10%.
`CS(=O)(=O)c1ccc(-c2cc3c(cc2CC2CCCCCC2)OCO3)cc1` [Example 11c, 4-(6-(Cycloheptylmethyl)(2H-benzo(3,4-d)1,3-dioxolan-5-yl))-1-(methylsulfonyl)benzene]: the “COX-1 Inhibition (% at 100 μM)” value on COX-1 is 40%. At COX-2, the “COX-2 Inhibition (% at 10 μM)” value is 80%.
For `Cc1cccc(C(=O)c2cc3c(cc2-c2ccc(S(C)(=O)=O)cc2)OCO3)c1` [Example 12c, 3-Methylphenyl 6-(4-(methylsulfonyl)phenyl)(2H-benzo(d)1,3-dioxolan-5-yl)ketone], in that order: 90% and 90%.
Regarding `CS(=O)(=O)c1ccc(-c2cc3c(cc2C(=O)c2cccc(CO[N+](=O)[O-])c2)OCO3)cc1` [Example 12d, 6-(4-(methylsulfonyl)phenyl)(2H-benzo(d)1,3-dioxolan-5-yl)3-((nitrooxy)methyl)phenylketone], the “COX-1 Inhibition (% at 100 μM)” value on COX-1 was 20%. The “COX-2 Inhibition (% at 10 μM)” value at COX-2 came to 20%.
Regarding `COc1cccc(C(=O)c2cc3c(cc2-c2ccc(S(C)(=O)=O)cc2)OCO3)c1` [Example 13c, 3-Methoxyphenyl-6-(4-(methylsulfonyl)phenyl)(2H-benzo(d)1,3-dioxolan-5-yl) ketone], the “COX-1 Inhibition (% at 100 μM)” value on COX-1 is 90%. The “COX-2 Inhibition (% at 10 μM)” value at COX-2 is reported as 75%.
The matching figures for `Cc1ccc(F)c(C(=O)c2cc3c(cc2-c2ccc(S(C)(=O)=O)cc2)OCO3)c1` [Example 14c, 2-Fluoro-5-methylphenyl6-(4-(methylsulfonyl)phenyl)(2H-benzo(d)1,3-dioxolan-5-yl)ketone]: 90% and 75%.
